Legend:
[1] = Solubility of the compound; assay type: physicochemical
[2] = biological target: Carbonic anhydrase 9 (Homo sapiens, UniProt Q16790); test: Inhibition of recombinant human carbonic anhydrase 9 using 4-nitrophenylacetate as substrate
[3] = Cytotoxicity against HCEC assessed as reduction in cell viability at 2% concentration by MTT assay relative to control; assay type: functional, Homo sapiens
[4] = Cytotoxicity against HCEC assessed as […] cell viability at 1% concentration by MTT assay relative to control; assay type: functional, Homo sapiens

| SMILES | solubility [1] [%] | IC50 [2] [nM] | Activity [3] [%] | Activity [4] [%] |
| --- | --- | --- | --- | --- |
| CC(=O)N[C@@H]1O[C@H](CO)[C@@H](O)[C@H](O)[C@H]1NC(=O)c1ccc(S(N)(=O)=O)cc1 | 2.5 | 227 | 77 | 80 |
| CCO[C@@H]1O[C@H](CO)[C@@H](O)[C@H](O)[C@H]1NC(=O)c1ccc(S(N)(=O)=O)cc1 | 2.3 | 152 | 77 | 80 |
| CCCO[C@@H]1O[C@H](CO)[C@@H](O)[C@H](O)[C@H]1NC(=O)c1ccc(S(N)(=O)=O)cc1 | 2 | 241 | 77 | 80 |
| CC(C)O[C@@H]1O[C@H](CO)[C@@H](O)[C@H](O)[C@H]1NC(=O)c1ccc(S(N)(=O)=O)cc1 | 2 | 142 | 77 | 80 |
| CCC(=O)N[C@@H]1O[C@H](CO)[C@@H](O)[C@H](O)[C@H]1NC(=O)c1ccc(S(N)(=O)=O)cc1 | 2.5 | 276 | 77 | 80 |
| NS(=O)(=O)c1ccc(C(=O)O)cc1 [CARZENIDE] |  | 24000 |  |  |
| CO[C@@H]1O[C@H](CO)[C@@H](O)[C@H](O)[C@H]1NC(=O)c1ccc(S(N)(=O)=O)cc1 | 2.5 | 90 | 77 | 80 |

The next lines start with results.

| solubility [1] [%] | IC50 [2] [nM] | SMILES | Activity [3] [%] | Activity [4] [%] |
| --- | --- | --- | --- | --- |
| 0.05 |  | CCN[C@H]1CN(CCCOC)S(=O)(=O)c2sc(S(N)(=O)=O)cc21 [BRINZOLAMIDE] |  |  |
| 0.21 |  | CC(=O)Nc1nnc(S(N)(=O)=O)s1 [ACETAZOLAMIDE] |  |  |
| 0.67 |  | CCN[C@H]1C[C@H](C)S(=O)(=O)c2sc(S(N)(=O)=O)cc21 [DORZOLAMIDE] |  |  |
